Measurements taken from publication PMC11859928, “Design, Synthesis, and Antiproliferative Activity of Novel Indole/1,2,4-Triazole Hybrids as Tubulin Polymerization Inhibitors” (Pharmaceuticals, 2025).

Key:
[1] = tested on: SGC-7901 cancer cell line; set-up: method as in PMID 37182330; details: cited from earlier work
[2] = tested on: multi-drug resistant K562R cell line; set-up: method as in PMID 33038796; details: cited from earlier work
tubulin = target: T1, tubulin (Sus scrofa, UniProt P02550+P02554); assay: Tubulin polymerization inhibitory assay; format: biochemical
T1 construct: purchased Cytoskeleton Inc., Denver, CO, USA
Excerpt: The substances’ effects on tubulin polymerization were examined using the Tubulin Polymerization Assay Kit (Cytoskeleton Inc., Denver, CO, USA) according to the supplier’s instructions, with details described in Appendix A..
The activity of compounds on tubulin polymerization was investigated using the Tubulin Polymerization Assay Kit (Cytoskeleton Inc., Denver, CO, USA), which works via fluorescent reporter enhancement. […] Docetaxel and vincristine (Apoteket AB, Stockholm, Sweden) served as positive stabilizing and destabilizing controls. Both were used at a 3 µM concentration in PBS.

T1 sequence (P02554 whole entry): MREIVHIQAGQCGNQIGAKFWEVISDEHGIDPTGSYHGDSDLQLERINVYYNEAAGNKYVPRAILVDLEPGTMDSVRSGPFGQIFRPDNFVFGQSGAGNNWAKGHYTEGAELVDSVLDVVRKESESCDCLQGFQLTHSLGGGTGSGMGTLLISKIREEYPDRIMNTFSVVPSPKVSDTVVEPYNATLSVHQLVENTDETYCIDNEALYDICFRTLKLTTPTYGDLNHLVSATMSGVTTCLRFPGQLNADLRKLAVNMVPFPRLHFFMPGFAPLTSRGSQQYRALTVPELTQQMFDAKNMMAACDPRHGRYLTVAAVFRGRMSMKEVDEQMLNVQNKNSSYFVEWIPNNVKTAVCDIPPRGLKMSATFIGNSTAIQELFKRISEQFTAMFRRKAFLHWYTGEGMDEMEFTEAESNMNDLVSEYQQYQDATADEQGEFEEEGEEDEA
T1 sequence (P02550 whole entry): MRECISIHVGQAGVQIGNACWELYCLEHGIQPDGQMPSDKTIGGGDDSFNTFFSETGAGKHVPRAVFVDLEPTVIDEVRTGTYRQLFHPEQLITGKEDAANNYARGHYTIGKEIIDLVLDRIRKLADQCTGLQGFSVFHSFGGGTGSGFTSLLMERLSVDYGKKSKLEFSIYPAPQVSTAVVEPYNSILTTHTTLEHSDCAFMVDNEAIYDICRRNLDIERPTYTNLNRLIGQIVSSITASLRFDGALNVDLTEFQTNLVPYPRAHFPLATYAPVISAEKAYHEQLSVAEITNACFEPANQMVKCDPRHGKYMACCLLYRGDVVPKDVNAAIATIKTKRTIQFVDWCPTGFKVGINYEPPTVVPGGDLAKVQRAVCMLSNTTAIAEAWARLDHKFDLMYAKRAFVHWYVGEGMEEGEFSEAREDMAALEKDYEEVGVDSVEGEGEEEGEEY

COc1cc(-c2nc3scc(-c4cc(Cl)cc(Cl)c4)n3n2)cc(OC)c1OC [IV]
IC50 [1]: 210 nM

Cc1cc(-c2cccc(-c3c[nH]c4ccccc34)n2)c2ccccc2n1 [Compound III]
antiproliferative potency, times more effective than CA-4 [2]: 12 times | antiproliferative potency, times more effective than isoCA-4 [2]: 1.5 times

COc1ccc(/C=C\c2cc(OC)c(OC)c(OC)c2)cc1O [CA-4, combretastatin A-4, reference compound]
%inhibition (tubulin; conc 0.01 (unit not given; IC50 from this curve in µg/ml)): 8.7% | %inhibition (tubulin; conc 0.1 (unit not given; IC50 from this curve in µg/ml)): 21.2% | %inhibition (tubulin; conc 1 (unit not given; IC50 from this curve in µg/ml)): 34.9% | %inhibition (tubulin; conc 10 (unit not given; IC50 from this curve in µg/ml)): 59% | %inhibition (tubulin; conc 100 (unit not given; IC50 from this curve in µg/ml)): 84.2%
